Source: ChEMBL document CHEMBL5614376, “Discovery of MT-1207: A Novel, Potent Multitarget Inhibitor as a Promising Clinical Candidate for the Treatment of Hypertension” (J Med Chem, 2024)
Active and inactive are the calls of the source. The rule behind the calls is not given here.

Tests used:
[1] = Plasma protein binding in Sprague-Dawley rat at 1 uM incubated for 30 mins; format: ADME, cell-free; details: read-out: PPB (converted)
Rattus norvegicus [2] = test: Effect on postural hypotension in Sprague-Dawley rat assessed as change in systolic blood pressure at 2.5 mg/kg, po treated for >30 mins followed by induction of postural hypotension measured 10 secs after postural change (reference value: 127 +/- 12 mmHg); format: functional; details: time > 30.17 min, 0.5028 h
[3] = Cmax in female Sprague-Dawley rat at 30 mg/kg, po measured on day 1 by UP/LC/MS/MS analysis; format: ADME, organism-based; details: in vivo, time 1 day
[4] = Cmax in female Sprague-Dawley rat at 10 mg/kg, po measured on day 1 by UP/LC/MS/MS analysis; format: ADME, organism-based; details: in vivo, time 1 day
[5] = Metabolic stability in human liver microsomes assessed as drug metabolism at 10 umol/L incubated upto 120 mins in presence of NADPH by LC-MS/MS analysis; format: ADME, Microsome; details: 2 h, 10 µM, dose 10 µmol/L
[6] = Toxicity in Sprague-Dawley rat assessed as drug tolerance at 10 to 100 mg/kg, po qd treated for 13 weeks; format: organism-based; details: in vivo, 2184 h, dose 10-100 mg/kg
[7] = Apparent oral clearance in Sprague-Dawley rat at 3 mg/kg, po measured for 24 hrs by UPLC/MS/MS analysis; format: ADME, organism-based; details: in vivo
[8] = Acute toxicity in Sprague-Dawley rat assessed as change in body weight at 250 to 1000 mg/kg, po single administration measured for 14 days; format: organism-based; details: in vivo, 336 h, dose 250-1000 mg/kg, time 14 day
[9] = Toxicity in male Sprague-Dawley rat assessed as change in body weight at 30 mg/kg, po qd treated for 13 weeks consecutively measured post-cessation of treatment; format: organism-based; details: in vivo, 2184 h
Rattus norvegicus [10] = test: Effect on postural hypotension in Sprague-Dawley rat assessed as change in systolic blood pressure at 2.5 mg/kg, po treated for >30 mins followed by induction of postural hypotension measured 20 secs after postural change (reference value: 129 +/- 11 mmHg); format: functional; details: time > 30.33 min, 0.5055 h
[11] = Tmax in female Sprague-Dawley rat at 30 mg/kg, po qd treated for 13 weeks consecutively measured after recovery period on day 91 by UP/LC/MS/MS analysis; format: ADME, organism-based; details: in vivo, time 91 day
[12] = Tmax in Sprague-Dawley rat at 3 mg/kg, po measured for 24 hrs by UPLC/MS/MS analysis; format: ADME, organism-based; details: in vivo
[13] = Toxicity in male Sprague-Dawley rat assessed as reduction in body weight at 30 mg/kg, po qd treated for 11 days consecutively; format: organism-based; design: scale not given: the % may be the effect or the level left; details: in vivo, 264 h, time 11 day
[14] = Tmax in female Sprague-Dawley rat at 30 mg/kg, po measured on day 1 by UP/LC/MS/MS analysis; format: ADME, organism-based; details: in vivo, time 1 day
[15] = Cmax in female Sprague-Dawley rat at 30 mg/kg, po qd treated for 13 weeks consecutively measured after recovery period on day 91 by UP/LC/MS/MS analysis; format: ADME, organism-based; details: in vivo, time 91 day
[16] = Tmax in male Sprague-Dawley rat at 100 mg/kg, po measured on day 1 by UP/LC/MS/MS analysis; format: ADME, organism-based; details: in vivo, time 1 day
[17] = Apparent volume of distribution during terminal phase in Sprague-Dawley rat at 1 mg/kg, iv measured for 24 hrs by UPLC/MS/MS analysis; format: ADME, organism-based; details: in vivo
[18] = Acute toxicity in Sprague-Dawley rat assessed as change in morphology of animal at 250 to 1000 mg/kg, po single administration measured for 14 days; format: organism-based; details: in vivo, 336 h, dose 250-1000 mg/kg, time 14 day
Rattus norvegicus [19] = test: Effect on serum K+ level in 2K2C renovascular hypertensive Sprague-Dawley rat model at 10 mg/kg, po measured after 9 weeks by biochemical analysis; format: functional, organism-based
[20] = Metabolic stability in macaque liver microsomes assessed as compound remaining at 10 umol/L incubated upto 120 mins in presence of NADPH by LC-MS/MS analysis; format: ADME, Microsome; details: macaca, dose 10 µmol/L, read-out: Stability
[21] = Cmax in male Sprague-Dawley rat at 30 mg/kg, po qd treated for 13 weeks consecutively measured after recovery period on day 91 by UP/LC/MS/MS analysis; format: ADME, organism-based; details: in vivo, time 91 day
[22] = AUC (0 to t) in male Sprague-Dawley rat at 10 mg/kg, po qd treated for 13 weeks consecutively measured after recovery period on day 91 by UP/LC/MS/MS analysis; format: ADME, organism-based; details: in vivo, time 91 day
[23] = target: 5-hydroxytryptamine receptor 2A (Homo sapiens, UniProt P28223); test: Displacement of [3H]Ketanserin from recombinant human 5-HT2A receptor extracted from CHO cell membrane at 10 nM incubated for 60 mins by radioligand binding assay relative to control; format: cell membranes; details: filed as antagonist
[24] = Toxicity in female Sprague-Dawley rat assessed as reduction in body weight at 100 mg/kg, po qd treated for 4 days consecutively; format: organism-based; design: scale not given: the % may be the effect or the level left; details: in vivo, 96 h, time 4 day
[25] = Half life in Sprague-Dawley rat at 1 mg/kg, po measured for 24 hrs by UPLC/MS/MS analysis; format: ADME, organism-based; details: in vivo
[26] = Acute toxicity in Sprague-Dawley rat assessed as unscheduled animal fatality at 250 to 1000 mg/kg, po single administration measured for 14 days; format: organism-based; details: in vivo, 336 h, dose 250-1000 mg/kg, time 14 day
[27] = Toxicity in Sprague-Dawley rat at 10 to 100 mg/kg, po qd treated for 13 weeks; format: organism-based; details: in vivo, dose 10-100 mg/kg
[28] = AUC (0 to t) in female Sprague-Dawley rat at 100 mg/kg, po qd treated for 13 weeks consecutively measured after recovery period on day 91 by UP/LC/MS/MS analysis; format: ADME, organism-based; details: in vivo, time 91 day
[29] = Plasma protein binding in human at 10 uM incubated for 30 mins; format: ADME, cell-free; details: read-out: PPB (converted)
[30] = Apparent volume of distribution during terminal phase in Sprague-Dawley rat at 9 mg/kg, po measured for 24 hrs by UPLC/MS/MS analysis; format: ADME, organism-based; details: in vivo, read-out: Vz/F

Sequence of 5-hydroxytryptamine receptor 2A (P28223 whole entry): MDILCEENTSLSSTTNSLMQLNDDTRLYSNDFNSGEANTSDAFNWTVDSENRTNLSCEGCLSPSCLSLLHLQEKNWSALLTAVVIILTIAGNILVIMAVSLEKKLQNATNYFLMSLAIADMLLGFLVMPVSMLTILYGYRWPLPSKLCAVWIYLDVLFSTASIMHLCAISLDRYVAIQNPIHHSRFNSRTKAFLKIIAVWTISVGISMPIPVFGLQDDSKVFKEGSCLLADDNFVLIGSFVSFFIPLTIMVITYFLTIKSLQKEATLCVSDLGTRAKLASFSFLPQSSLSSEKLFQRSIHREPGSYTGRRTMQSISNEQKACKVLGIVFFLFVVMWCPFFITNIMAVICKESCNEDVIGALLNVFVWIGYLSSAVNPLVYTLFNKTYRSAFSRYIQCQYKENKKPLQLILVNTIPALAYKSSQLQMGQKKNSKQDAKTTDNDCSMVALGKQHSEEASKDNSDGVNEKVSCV

Compound Cl.c1ccc2c(c1)nnn2CCCCN1CCN(c2nsc3ccccc23)CC1 has a fraction unbound at 0.5 h, 1 µM [1] of 0.019, an Activity (Rattus norvegicus [2]) of 89 mmHg and a Cmax [3] of 408 ng/mL. For the same compound, the Cmax [4] was 88.7 ng/mL, the Drug metabolism [5] was “Metabolite_Detected” and the Activity [6] was “Non-Toxic”. For the same compound, the CL/F [7] was 130 mL/min, the Activity [8] was “Non-Toxic” and the Activity [9] was “Non-Toxic”. The Activity (Rattus norvegicus [10]) was 91 mmHg, the Tmax [11] was 1 h and the Tmax [12] was 2 h. The Activity [13] was ~ 3.3%, the Tmax [14] was 1 h and the Cmax [15] was 333 ng/mL. The Tmax [16] was 1.3 h, the Vz/F [17] was 4.5 L and the Activity [18] was “Non-Toxic”. For the same compound, the Activity (Rattus norvegicus [19]) was “Active”, the remaining at 2 h, 10 µM [20] was 1.5% and the Cmax [21] was 238 ng/mL. The AUC(0-t) at 2184 h [22] was 112 ng·h/mL, the inhibition [23] was 96% and the Activity [24] was ~ 3.3%. For the same compound, the half-life [25] was 1.5 h, the Activity [26] was “Non-Toxic” and the NOAEL at 2184 h [27] was 100 mg/kg. The AUC(0-t) at 2184 h [28] was 7450 ng·h/mL, the fraction unbound at 0.5 h, 10 µM [29] was 0.004 and the Vd/F [30] was 78.9 L.
